Test results: ChEMBL document CHEMBL1201862, “PubChem BioAssay data set” (2004)
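Grown in 96-well plates, cells were treated for 48 hours with each compound at five concentrations. Insufficient inhibition: endpoint recorded as highest concentration tested. GI50 = concentration required for 50% inhibition of growth.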 Active and inactive are the calls of the source. Cut-off read from the data, not from the text of the source: active = GI50 up to about 1.1 µM and inactive = higher.

Columns and labels:
Test in all cases: NCI-60 cell line screen, 48 h
OVCAR-3 = tested on: OVCAR-3
SK-OV-3 = tested on: SK-OV-3
CCRF-CEM = tested on: CCRF-CEM
SK-MEL-5 = tested on: SK-MEL-5
LOX IMVI = tested on: LOX IMVI
MDA-MB-231 = tested on: MDA-MB-231
DU-145 = tested on: DU-145
KM12 = tested on: KM12
OVCAR-8 = tested on: OVCAR-8
UACC-257 = tested on: UACC-257
BT-549 = tested on: BT-549
HL-60 = tested on: HL-60
M14 = tested on: M14
Malme-3M = tested on: Malme-3M
RXF 393 = tested on: RXF 393
EKVX = tested on: EKVX
HCC 2998 = tested on: HCC 2998
SK-MEL-2 = tested on: SK-MEL-2
OVCAR-4 = tested on: OVCAR-4
ACHN = tested on: ACHN

SMILES	GI50 (OVCAR-3)	GI50 (SK-OV-3)	GI50 (CCRF-CEM)	GI50 (SK-MEL-5)	GI50 (LOX IMVI)	GI50 (MDA-MB-231)	GI50 (DU-145)	GI50 (KM12)	GI50 (OVCAR-8)	GI50 (UACC-257)	GI50 (BT-549)	GI50 (HL-60)	GI50 (M14)	GI50 (Malme-3M)	GI50 (RXF 393)	GI50 (EKVX)	GI50 (HCC 2998)	GI50 (SK-MEL-2)	GI50 (OVCAR-4)	GI50 (ACHN)
O=C(NCCCNC(=O)c1ccc2c(O)c(O)ccc2c1)c1ccc2c(O)c(O)ccc2c1	22.8 µM (inactive)	> 100 µM (inactive)	5.18 µM (inactive)	20.3 µM (inactive)	9.57 µM (inactive)	29.6 µM (inactive)	71.1 µM (inactive)	18.3 µM (inactive)	35.6 µM (inactive)	21.3 µM (inactive)	18.7 µM (inactive)	6.32 µM (inactive)	26.6 µM (inactive)	> 95.5 µM (inactive)	27.3 µM (inactive)	32.4 µM (inactive)	> 60.4 µM (inactive)	35.3 µM (inactive)	57.5 µM (inactive)	24.2 µM (inactive)
N#CCc1nc(-c2cc3ccc(O)cc3oc2=O)cs1	–	73.6 µM (inactive)	38.7 µM (inactive)	38.7 µM (inactive)	46.2 µM (inactive)	95.1 µM (inactive)	83.4 µM (inactive)	28.5 µM (inactive)	> 100 µM (inactive)	41.7 µM (inactive)	25.2 µM (inactive)	29.2 µM (inactive)	46.5 µM (inactive)	> 100 µM (inactive)	84.7 µM (inactive)	63 µM (inactive)	87.1 µM (inactive)	27.2 µM (inactive)	43.4 µM (inactive)	57.9 µM (inactive)
Cc1c2c(c(C)n1-c1ccccc1)C(=O)N(CCCCN1CCN(c3ccccc3)CC1)C2=O	8.95 µM (inactive)	27.4 µM (inactive)	7.21 µM (inactive)	3.7 µM (inactive)	10 µM (inactive)	10 µM (inactive)	19 µM (inactive)	19.5 µM (inactive)	14.2 µM (inactive)	5.36 µM (inactive)	16.9 µM (inactive)	5.5 µM (inactive)	9.53 µM (inactive)	4.03 µM (inactive)	14.5 µM (inactive)	10 µM (inactive)	4.99 µM (inactive)	22.3 µM (inactive)	13 µM (inactive)	23.1 µM (inactive)
O=C(CCc1ccccc1)ON1C(=S)NC(c2ccccc2)(c2ccccc2)C1=S	29 µM (inactive)	35.6 µM (inactive)	21.9 µM (inactive)	19.5 µM (inactive)	21.1 µM (inactive)	51.3 µM (inactive)	68.1 µM (inactive)	27.4 µM (inactive)	31.2 µM (inactive)	36.5 µM (inactive)	37.8 µM (inactive)	21.6 µM (inactive)	42.1 µM (inactive)	20.8 µM (inactive)	36 µM (inactive)	25.4 µM (inactive)	29.4 µM (inactive)	20.2 µM (inactive)	33.7 µM (inactive)	44.9 µM (inactive)
CC(=O)C1=C(C)N(c2ccccc2)C2(O)C=CC(O)=C3C(=O)c4ccccc4C(=O)C312 (stereo unspecified)	3.52 µM (inactive)	48.4 µM (inactive)	3.73 µM (inactive)	10.6 µM (inactive)	4.94 µM (inactive)	17.7 µM (inactive)	9.04 µM (inactive)	13.5 µM (inactive)	9.18 µM (inactive)	5.65 µM (inactive)	13.2 µM (inactive)	5.69 µM (inactive)	20.3 µM (inactive)	0.748 µM (active)	11.6 µM (inactive)	18.2 µM (inactive)	10.6 µM (inactive)	15.3 µM (inactive)	20.9 µM (inactive)	11.4 µM (inactive)
N#Cc1sc2c(c1OC(=O)c1ccco1)c(=O)n(-c1ccccc1)c(=S)n2-c1ccccc1	24.8 µM (inactive)	27.7 µM (inactive)	> 10 µM (inactive)	17.6 µM (inactive)	16.2 µM (inactive)	26.5 µM (inactive)	48.5 µM (inactive)	30.3 µM (inactive)	29.9 µM (inactive)	62.2 µM (inactive)	37.6 µM (inactive)	67.5 µM (inactive)	25.5 µM (inactive)	22.2 µM (inactive)	23.3 µM (inactive)	52.6 µM (inactive)	55.7 µM (inactive)	28.8 µM (inactive)	23.6 µM (inactive)	–
COc1cc(NS(C)(=O)=O)ccc1NCc1c[nH]c2ccc3ncccc3c12	23.2 µM (inactive)	16.5 µM (inactive)	1.83 µM (inactive)	12.4 µM (inactive)	25.2 µM (inactive)	19.7 µM (inactive)	23.9 µM (inactive)	17.1 µM (inactive)	25 µM (inactive)	17 µM (inactive)	18.9 µM (inactive)	0.871 µM (active)	16.3 µM (inactive)	20.5 µM (inactive)	5.55 µM (inactive)	20.2 µM (inactive)	18.9 µM (inactive)	19.5 µM (inactive)	20.7 µM (inactive)	21 µM (inactive)
CC#CCOC(=O)c1ccccc1OC(C)=O	–	> 100 µM (inactive)	> 100 µM (inactive)	> 100 µM (inactive)	> 100 µM (inactive)	> 100 µM (inactive)	> 100 µM (inactive)	> 100 µM (inactive)	> 100 µM (inactive)	> 100 µM (inactive)	> 100 µM (inactive)	72.1 µM (inactive)	> 100 µM (inactive)	–	> 100 µM (inactive)	> 100 µM (inactive)	> 100 µM (inactive)	> 100 µM (inactive)	> 100 µM (inactive)	> 100 µM (inactive)
O=C1/C(=C/c2ccc3c(c2)OCO3)Sc2scc(-c3ccc(O)c(O)c3)[n+]21	4.61 µM (inactive)	8.11 µM (inactive)	0.264 µM (active)	2.54 µM (inactive)	2.34 µM (inactive)	3.54 µM (inactive)	4.44 µM (inactive)	2.65 µM (inactive)	2.99 µM (inactive)	3.6 µM (inactive)	2.04 µM (inactive)	0.325 µM (active)	3 µM (inactive)	–	3.11 µM (inactive)	2.67 µM (inactive)	1.82 µM (inactive)	10.8 µM (inactive)	4.2 µM (inactive)	1.86 µM (inactive)
COc1cc2c(cc1[N+](=O)[O-])C(=O)C(Br)(Br)CCC2	3.51 µM (inactive)	3.21 µM (inactive)	0.101 µM (active)	1.72 µM (inactive)	0.4 µM (active)	3.05 µM (inactive)	7.18 µM (inactive)	3.78 µM (inactive)	2.25 µM (inactive)	13.6 µM (inactive)	2.12 µM (inactive)	3.22 µM (inactive)	2.12 µM (inactive)	2.13 µM (inactive)	1.93 µM (inactive)	2.12 µM (inactive)	14 µM (inactive)	2.13 µM (inactive)	4.62 µM (inactive)	2.11 µM (inactive)
CN(O)C(=O)c1cccc(Cl)c1	> 100 µM (inactive)	> 100 µM (inactive)	60 µM (inactive)	> 100 µM (inactive)	> 100 µM (inactive)	> 100 µM (inactive)	> 100 µM (inactive)	> 100 µM (inactive)	> 100 µM (inactive)	> 100 µM (inactive)	> 100 µM (inactive)	10.2 µM (inactive)	> 100 µM (inactive)	–	> 100 µM (inactive)	> 100 µM (inactive)	> 100 µM (inactive)	> 100 µM (inactive)	> 100 µM (inactive)	> 100 µM (inactive)
CCOC(=O)C1=CCOc2cc(N(C)C)ccc21	21.7 µM (inactive)	> 100 µM (inactive)	21.6 µM (inactive)	> 100 µM (inactive)	> 100 µM (inactive)	> 100 µM (inactive)	> 100 µM (inactive)	> 100 µM (inactive)	> 100 µM (inactive)	> 100 µM (inactive)	> 100 µM (inactive)	31.8 µM (inactive)	> 100 µM (inactive)	> 100 µM (inactive)	> 100 µM (inactive)	> 100 µM (inactive)	> 100 µM (inactive)	75 µM (inactive)	–	> 100 µM (inactive)
C[C@@](O)(/C=C/[C@H]1CC=CC(=O)O1)[C@@H](C[C@@H](O)\C=C/C=C\C=C\CO)OP(=O)(O)O [FOSTRIECIN SODIUM]	–	10.2 µM (inactive)	2.12 µM (inactive)	4.67 µM (inactive)	2.16 µM (inactive)	22.3 µM (inactive)	3.21 µM (inactive)	6.08 µM (inactive)	9.48 µM (inactive)	4.94 µM (inactive)	9.59 µM (inactive)	1.1 µM (active)	0.634 µM (active)	4.74 µM (inactive)	4.11 µM (inactive)	16.5 µM (inactive)	4.28 µM (inactive)	11.2 µM (inactive)	5.27 µM (inactive)	4.51 µM (inactive)
CCN(CC)C(=S)Nc1ccc(-c2cc3ccc(O)cc3oc2=O)cc1	17.4 µM (inactive)	44.1 µM (inactive)	16.4 µM (inactive)	22.3 µM (inactive)	25.9 µM (inactive)	39.4 µM (inactive)	29.8 µM (inactive)	28.8 µM (inactive)	26.9 µM (inactive)	22 µM (inactive)	26.1 µM (inactive)	3.76 µM (inactive)	27.2 µM (inactive)	17 µM (inactive)	30.2 µM (inactive)	32 µM (inactive)	20.2 µM (inactive)	20.3 µM (inactive)	–	25.9 µM (inactive)
